Where “and” joins values, the source holds several entries; their conditions need not be identical. Equal values may be shown once.
Tests used:
[1] = test system: spontaneously hypertensive rats (SHR); assay: Antihypertensive effect on MABP in SHR by radiotelemetry: CI-1027, quinapril and their combination (Example 1); type: in vivo; details: for MABP: peak MABP 2-4 hours postdose
Method: The antihypertensive effects of the carboxyalkylether compound of Formula III (CI-1027), alone and in combination with an antihypertensive agent such as quinapril (CI-906), were evaluated in rats according to the following protocol.
Male spontaneously hypertensive rats (SHR, 15-20 weeks old, Charles River Laboratories, Wilmington, Massachusetts) were prepared with indwelling aortic catheters and radiotransmitters (Data Sciences International, Saint Paul, Minnesota). The radiotransmitters provided continuous measurement of aortic blood pressure waveform. From the aortic blood pressure waveform a Ponemah (Gould Instruments Inc, Valley View, Ohio) computer provided mean arterial blood pressure (MABP) and heart rate values continuously as one-minute averages. One-minute data was then summarized at 15-minute intervals using Excel (Microsoft Corporation, Redmond, Washington) spreadsheets. Animals were allowed food and water ad libitum. To allow for recovery following surgery, rats were not dosed for a minimum of 7 days. Day 0 predose blood pressures were obtained by averaging eight 15-minute MABP measurements made 2 hours before dosing. To obtain the peak response to treatment (Days 0, 12, 16, 19, and 22), the 15-minute MABP measurements in the interval between 2 and 4 hours post-dose were averaged.
Test compounds were given in a vehicle that contained 96% water, 3% carbomethocellulose (Sigma Chemical, Saint Louis, Missouri) and 1% tween 88 (polyoxyethylenesorbitan monooleate, Sigma Chemical). CI-1027 and quinapril monotherapy were administered at 8:30 AM daily by oral gavage in a volume of 2 mL/kg. The combination of CI-1027 and quinapril was given as a single gavage in a volume of 2 mL/kg.
The experiment was carried out over 22 days in 4 groups of animals. Group I served as a control and received 2 mL/kglday of vehicle for 22 consecutive days. Group II, used to determine the antihypertensive response to quinapril monotherapy, was given vehicle for the first 12 to 13 consecutive days. Then on Day 13 to 14 quinapril was added at a dose of 0.3 mg/kg/day for 3 to 4 consecutive days; the dose was then increased to 1 mg/kg/day for the next 3 days, and on the final 3 days, 3 mg/kg/day was administered. To determine the response to CI-1027 monotherapy, Groups III and IV received 12-day treatment with CI-1027 monotherapy at doses of 30 and 100 mg/kg/day, respectively. To determine the antihypertensive response to the combination therapy quinapril, was added to the ongoing CI-1027 treatment (Day 13-14) using the rising dose protocol described for Group II (quinapril monotherapy).

SHR = assay: Antihypertensive effect on MABP in SHR by radiotelemetry: CI-1027, amlodipine and their combination (Example 2); type: in vivo, rats; details: for MABP: peak MABP 4-6 hours postdose
Method: The general procedure of Example 1 was followed to evaluate the antihypertensive efficacy of the carboxyalkylether CI-1027 alone and in combination with the calcium channel blocker amlodipine.
Male SHR (15-20 weeks old, Charles River Laboratories) were prepared with indwelling aortic catheters and radiotransmitters for continuous measurement of arterial blood pressure and heart rate. Animals were allowed food and water ad libitum. Before dosing all rats were given a minimum of 7 days for recovery from surgery.
The experiment was carried out over 22 days in 3 groups of SHR. Group I served as a control and received 2 mL/kg/day of vehicle (same as in Example 1) for 22 consecutive days. Group II, used to determined the antihypertensive response to amlodipine monotherapy, was given vehicle for the first 13 consecutive days. Then on Day 14, amlodipine was added at a dose of 0.3 mg/kg/day for 3 consecutive days. The dose was then increased to 1 mg/kg/day for the next 3 days, and on the final 3 days, 3 mg/kg/day was given. To determine the response to CI-1027 monotherapy, Group III received a 13-day treatment with CI-1027 monotherapy at a dose of 30 mg/kg/day. The antihypertensive response to the combination therapy was determined by the addition of amlodipine to ongoing CI-1027 treatment on Day 14.
Drugs were suspended or dissolved in vehicle that contains 96% water, 3% carboxymethocellulose, and 1% tween 88. Compounds were given at 9 AM daily by oral gavage in a volume of 2 mL/kg. The combination of CI-1027 and amlodipine was given as a single gavage in a volume of 2 mL/kg.

With `CCOC(=O)[C@H](CCc1ccccc1)N[C@@H](C)C(=O)N1Cc2ccccc2C[C@H]1C(=O)O` [Quinapril, quinapril] the MABP ([1]; Group 2, Day 16, Quinapril 0.3 mg/kg/day oral gavage, mean ± standard error) was 122 ± 5 mm Hg, the MABP ([1]; Group 2, Day 19, Quinapril 1 mg/kg/day oral gavage, mean ± standard error) was 121 ± 4 mm Hg and the MABP ([1]; Group 2, Day 22, Quinapril 3 mg/kg/day oral gavage, mean ± standard error) was 117 mm Hg and 117 ± 4 mm Hg. For the same compound, the “antihypertensive response at 3 mg/kg/day greater than noted at 0.3 mg/kg/day” value ([1]; Quinapril monotherapy, rising dose protocol, difference between 3 and 0.3 mg/kg/day) was 5 mm Hg.

In the case of `CC(C)(CCCCOCCCCC(C)(C)C(=O)O)C(=O)O` [CI-1027], the MABP (SHR; Group 3, Day 0, CI-1027 30 mg/kg/day oral gavage, predose 131 ± 3) is reported as “CI-1027 (30 mg/kg/day) 129 ± 4 mm Hg”, the antihypertensive activity ([1]; CI-1027 monotherapy, 12 days, 30 and 100 mg/kg/day) is reported as “modest” and the MABP ([1]; Group 3, Day 0, CI-1027 30 mg/kg/day oral gavage, predose 149 ± 3) is reported as 145 ± 4 mm Hg. For the same compound, the MABP ([1]; Group 3, Day 12, CI-1027 30 mg/kg/day oral gavage, 30 mg/kg/day) was 131 mm Hg and 131 ± 3 mm Hg and the MABP ([1]; Group 4, Day 0, CI-1027 100 mg/kg/day oral gavage, predose 141 ± 4) was 141 ± 4 mm Hg.

`CCOC(=O)C1=C(COCCN)NC(C)=C(C(=O)OC)C1c1ccccc1Cl` (stereo not drawn) [Amlodipine, amlodipine] was tested, and the MABP (SHR; Group 2, Day 16, Amlodipine 0.3 mg/kg/day oral gavage, mean ± standard error) was “Amlodipine (0.3 mg/kg/day) 140 ± 6 mm Hg”, the MABP (SHR; Group 2, Day 19, Amlodipine 1 mg/kg/day oral gavage) was “Amlodipine (1 mg/kg/day) 131 ± 5 mm Hg” and the minimal effective dose (SHR; Rattus norvegicus, po, amlodipine monotherapy (Group II), rising dose protocol, read-out: threshold antihypertensive dose) was 1 mg/kg/day.

Reference: EP1280522B1, “COMBINATION OF CARBOXYALKYLETHERS WITH ANTIHYPERTENSIVES AND PHARMACEUTICAL USE” (WARNER-LAMBERT COMPANY, priority 2000, dated 2001)
